Measurements from the NIST ThermoML archive (doi:10.1021/acs.jced.5b00903).

Columns and labels:
[1] = xn = mol fraction of the nth substance listed; conditions: surface light scattering
[2] = surface light scattering

CCO [ethanol] + CC(C)CC(C)(C)C
[1], x2 = 0
Conditions | surface tension liquid-gas [mN/m]
288.15 K | 22.72
298.15 K | 21.85
308.15 K | 21.04
318.15 K | 20.29

CCCCCCC [heptane]
[2]
Conditions | surface tension liquid-gas [mN/m]
293.15 K | 20.12
298.15 K | 19.69
303.15 K | 19.13
308.15 K | 18.67
313.15 K | 18.1
318.15 K | 17.7

CC(C)CC(C)(C)C [2,2,4-trimethylpentane] + CCCCCCO
[1], x1 = 1
Conditions | surface tension liquid-gas [mN/m]
298.15 K | 18.3
303.15 K | 17.9
308.15 K | 17.43
313.15 K | 17.09
318.15 K | 16.56
323.15 K | 16.2

CCCCCCCO [heptan-1-ol]
[2]
Conditions | surface tension liquid-gas [mN/m]
298.15 K | 26.46
303.15 K | 25.93
308.15 K | 25.43
313.15 K | 24.95
318.15 K | 24.55
323.15 K | 24.03

CCCO [propan-1-ol] + CC(C)CC(C)(C)C
[1], x2 = 0
Conditions | surface tension liquid-gas [mN/m]
298.15 K | 23.31
303.15 K | 22.9
308.15 K | 22.52
313.15 K | 22.1
318.15 K | 21.68
323.15 K | 21.27

CCO [ethanol] + CCCCCCC
[1], x2 = 0
Conditions | surface tension liquid-gas [mN/m]
293.15 K | 22.31
298.15 K | 21.85
303.15 K | 21.41
308.15 K | 21.04
313.15 K | 20.62
318.15 K | 20.29

CCCCCO [pentan-1-ol] + CC(C)CC(C)(C)C
surface tension liquid-gas [mN/m], [1]
Conditions | x2 = 0 | x2 = 0.1004 | x2 = 0.2003 | x2 = 0.3 | x2 = 0.4 | x2 = 0.5 | x2 = 0.5999 | x2 = 0.6998 | x2 = 0.7999 | x2 = 0.8996
298.15 K | 25.29 | 23.81 | 22.53 | 21.7 | 20.97 | 20.3 | 19.77 | 19.38 | 18.94 | 18.64
303.15 K | 24.87 | 23.28 | 22.05 | 21.22 | 20.49 | 19.82 | 19.3 | 18.93 | 18.51 | 18.22
308.15 K | 24.46 | 22.83 | 21.56 | 20.71 | 19.98 | 19.3 | 18.79 | 18.42 | 18.01 | 17.75
313.15 K | 24.05 | 22.42 | 21.08 | 20.23 | 19.51 | 18.84 | 18.34 | 18 | 17.61 | 17.38
318.15 K | 23.65 | 21.99 | 20.58 | 19.71 | 18.97 | 18.3 | 17.79 | 17.45 | 17.07 | 16.85
323.15 K | 23.21 | 21.5 | 20.14 | 19.26 | 18.51 | 17.83 | 17.34 | 17.02 | 16.65 | 16.43

CC(C)CC(C)(C)C [2,2,4-trimethylpentane] + CCCCCCCO
[1], x1 = 1
Conditions | surface tension liquid-gas [mN/m]
298.15 K | 18.3
303.15 K | 17.9
308.15 K | 17.43
313.15 K | 17.09
318.15 K | 16.56
323.15 K | 16.2
